Legend:
Test in all cases: KINOMEscan competition binding
Conditions in all cases: compound 10.0 µM
ACVR1B (human) = ACVR1B (human) (UniProt P36896)
ADCK4 (human) = ADCK4 (human) (UniProt Q96D53)
CAMK1D (human) = CAMK1D (human) (UniProt Q8IU85)
CDK15 (human) = CDK15 (human) (UniProt Q96Q40)
CDK7 (human) = CDK7 (human) (UniProt P50613)
CHUK (human) = CHUK (human) (UniProt O15111)
CSNK1A1L (human) = CSNK1A1L (human) (UniProt Q8N752)
CSNK2A1 (human) = CSNK2A1 (human) (UniProt P68400)
EPHA5 (human) = EPHA5 (human) (UniProt P54756)
EPHB6 (human) = EPHB6 (human) (UniProt O15197)
FGFR1 (human) = FGFR1 (human) (UniProt P11362)
FLT1 (human) = FLT1 (human) (UniProt P17948)
Chain of FLT1 (human) (P17948 whole entry, looked up): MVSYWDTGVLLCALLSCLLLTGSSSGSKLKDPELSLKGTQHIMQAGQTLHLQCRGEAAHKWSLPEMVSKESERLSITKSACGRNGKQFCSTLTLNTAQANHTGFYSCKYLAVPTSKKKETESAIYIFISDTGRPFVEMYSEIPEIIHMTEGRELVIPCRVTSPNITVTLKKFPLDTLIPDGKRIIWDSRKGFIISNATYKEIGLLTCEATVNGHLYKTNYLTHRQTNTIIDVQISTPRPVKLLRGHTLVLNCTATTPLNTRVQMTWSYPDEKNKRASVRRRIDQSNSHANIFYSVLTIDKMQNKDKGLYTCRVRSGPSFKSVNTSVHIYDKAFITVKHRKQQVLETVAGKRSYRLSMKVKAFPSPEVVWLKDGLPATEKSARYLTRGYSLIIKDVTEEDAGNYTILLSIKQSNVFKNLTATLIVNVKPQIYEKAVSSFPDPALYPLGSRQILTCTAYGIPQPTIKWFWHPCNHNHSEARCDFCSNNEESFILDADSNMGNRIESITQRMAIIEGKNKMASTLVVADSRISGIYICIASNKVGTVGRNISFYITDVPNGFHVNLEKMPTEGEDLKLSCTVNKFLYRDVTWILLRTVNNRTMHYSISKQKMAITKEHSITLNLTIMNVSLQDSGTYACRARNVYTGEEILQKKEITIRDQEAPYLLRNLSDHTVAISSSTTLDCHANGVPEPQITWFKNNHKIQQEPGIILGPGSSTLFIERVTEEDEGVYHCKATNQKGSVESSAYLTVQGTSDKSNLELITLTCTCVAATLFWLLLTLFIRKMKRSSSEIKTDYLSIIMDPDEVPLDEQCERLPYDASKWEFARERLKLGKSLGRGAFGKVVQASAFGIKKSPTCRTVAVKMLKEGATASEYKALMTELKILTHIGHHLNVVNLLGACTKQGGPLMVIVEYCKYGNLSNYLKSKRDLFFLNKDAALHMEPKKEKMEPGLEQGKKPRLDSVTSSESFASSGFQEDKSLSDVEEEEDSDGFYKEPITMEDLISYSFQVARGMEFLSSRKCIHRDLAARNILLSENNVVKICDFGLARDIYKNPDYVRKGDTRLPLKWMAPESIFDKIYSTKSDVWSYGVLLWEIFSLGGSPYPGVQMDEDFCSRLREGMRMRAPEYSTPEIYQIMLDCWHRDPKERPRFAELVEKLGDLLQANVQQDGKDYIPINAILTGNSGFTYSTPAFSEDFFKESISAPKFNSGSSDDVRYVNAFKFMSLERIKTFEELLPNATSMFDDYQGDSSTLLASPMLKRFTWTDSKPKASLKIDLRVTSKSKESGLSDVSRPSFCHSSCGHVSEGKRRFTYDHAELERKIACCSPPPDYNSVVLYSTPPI

GAK (human) = GAK (human) (UniProt O14976)
HCK (human) = HCK (human) (UniProt P08631)
[1] = molecular target: JAK1 JH2 pseudokinase (human) (UniProt P23458)
LRRK2 (human) = LRRK2 (human) (UniProt Q5S007)
MAP3K4 (human) = MAP3K4 (human) (UniProt Q9Y6R4)
MKNK2 (human) = MKNK2 (human) (UniProt Q9HBH9)
MST1R (human) = MST1R (human) (UniProt Q04912)
Chain of MST1R (human) (Q04912 whole entry, looked up): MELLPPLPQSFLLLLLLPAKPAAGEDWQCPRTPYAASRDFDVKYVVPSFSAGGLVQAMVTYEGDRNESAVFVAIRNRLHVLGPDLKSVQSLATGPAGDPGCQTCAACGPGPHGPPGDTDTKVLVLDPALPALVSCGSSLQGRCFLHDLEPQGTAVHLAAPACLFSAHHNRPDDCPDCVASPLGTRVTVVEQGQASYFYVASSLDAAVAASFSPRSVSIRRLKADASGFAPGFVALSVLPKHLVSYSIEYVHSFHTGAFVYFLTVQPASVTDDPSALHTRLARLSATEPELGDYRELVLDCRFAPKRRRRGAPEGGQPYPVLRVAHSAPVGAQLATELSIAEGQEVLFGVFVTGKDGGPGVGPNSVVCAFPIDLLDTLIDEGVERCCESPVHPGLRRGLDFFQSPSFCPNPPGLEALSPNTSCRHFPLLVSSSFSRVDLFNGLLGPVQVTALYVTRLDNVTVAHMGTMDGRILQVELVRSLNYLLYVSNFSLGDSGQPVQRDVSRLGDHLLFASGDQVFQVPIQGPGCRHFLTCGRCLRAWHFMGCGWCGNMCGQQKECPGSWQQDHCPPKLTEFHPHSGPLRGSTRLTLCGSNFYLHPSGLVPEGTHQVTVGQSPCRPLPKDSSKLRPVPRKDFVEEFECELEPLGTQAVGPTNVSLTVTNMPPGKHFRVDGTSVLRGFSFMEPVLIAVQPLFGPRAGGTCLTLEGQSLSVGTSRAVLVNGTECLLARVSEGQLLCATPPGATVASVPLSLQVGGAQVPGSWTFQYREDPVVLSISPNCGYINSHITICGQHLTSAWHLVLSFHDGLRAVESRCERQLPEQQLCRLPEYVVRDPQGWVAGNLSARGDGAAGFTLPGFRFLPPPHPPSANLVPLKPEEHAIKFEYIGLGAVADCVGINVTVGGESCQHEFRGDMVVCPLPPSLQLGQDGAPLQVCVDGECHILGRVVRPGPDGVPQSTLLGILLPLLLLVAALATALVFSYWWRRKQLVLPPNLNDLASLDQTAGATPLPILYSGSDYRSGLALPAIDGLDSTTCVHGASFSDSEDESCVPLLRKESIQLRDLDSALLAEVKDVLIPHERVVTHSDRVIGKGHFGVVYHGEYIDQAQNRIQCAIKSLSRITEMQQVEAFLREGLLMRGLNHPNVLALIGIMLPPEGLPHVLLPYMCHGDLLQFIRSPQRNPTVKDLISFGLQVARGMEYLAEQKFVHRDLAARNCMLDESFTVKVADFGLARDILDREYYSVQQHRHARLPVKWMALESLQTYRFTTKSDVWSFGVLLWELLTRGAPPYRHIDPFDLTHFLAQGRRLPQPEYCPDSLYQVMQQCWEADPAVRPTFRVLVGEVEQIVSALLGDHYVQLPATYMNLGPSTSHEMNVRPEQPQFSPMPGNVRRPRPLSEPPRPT

NEK11 (human) = NEK11 (human) (UniProt Q8NG66)
NEK5 (human) = NEK5 (human) (UniProt Q6P3R8)
NEK7 (human) = NEK7 (human) (UniProt Q8TDX7)
NEK9 (human) = NEK9 (human) (UniProt Q8TD19)
NTRK1 (human) = NTRK1 (human) (UniProt P04629)
PAK4 (human) = PAK4 (human) (UniProt O96013)
PDPK1 (human) = PDPK1 (human) (UniProt O15530)
Chain of PDPK1 (human) (O15530 whole entry, looked up): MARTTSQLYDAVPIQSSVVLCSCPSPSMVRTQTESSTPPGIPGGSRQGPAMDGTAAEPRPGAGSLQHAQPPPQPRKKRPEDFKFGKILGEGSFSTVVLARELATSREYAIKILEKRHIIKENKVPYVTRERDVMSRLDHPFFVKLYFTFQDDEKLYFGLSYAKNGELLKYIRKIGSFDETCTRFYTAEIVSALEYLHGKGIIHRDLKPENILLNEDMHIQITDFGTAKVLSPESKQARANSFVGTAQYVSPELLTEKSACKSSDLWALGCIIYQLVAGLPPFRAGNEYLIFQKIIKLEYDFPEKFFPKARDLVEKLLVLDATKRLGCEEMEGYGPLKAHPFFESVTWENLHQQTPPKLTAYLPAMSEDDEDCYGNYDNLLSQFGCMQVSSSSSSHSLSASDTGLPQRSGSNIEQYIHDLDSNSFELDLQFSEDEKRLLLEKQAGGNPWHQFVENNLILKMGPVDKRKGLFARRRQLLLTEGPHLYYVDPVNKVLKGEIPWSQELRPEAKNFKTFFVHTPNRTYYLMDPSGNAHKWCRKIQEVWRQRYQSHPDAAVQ

PKN1 (human) = PKN1 (human) (UniProt Q16512)
PKN3 (M.tuberculosis) = PKN3 (M.tuberculosis) (UniProt Q6P5Z2)
RIPK1 (human) = RIPK1 (human) (UniProt Q13546)
RIPK2 (human) = RIPK2 (human) (UniProt O43353)
ROS1 (human) = ROS1 (human) (UniProt P08922)
SRPK3 (human) = SRPK3 (human) (UniProt Q9UPE1)
STK16 (human) = STK16 (human) (UniProt O75716)
Chain of STK16 (human) (O75716 whole entry, looked up): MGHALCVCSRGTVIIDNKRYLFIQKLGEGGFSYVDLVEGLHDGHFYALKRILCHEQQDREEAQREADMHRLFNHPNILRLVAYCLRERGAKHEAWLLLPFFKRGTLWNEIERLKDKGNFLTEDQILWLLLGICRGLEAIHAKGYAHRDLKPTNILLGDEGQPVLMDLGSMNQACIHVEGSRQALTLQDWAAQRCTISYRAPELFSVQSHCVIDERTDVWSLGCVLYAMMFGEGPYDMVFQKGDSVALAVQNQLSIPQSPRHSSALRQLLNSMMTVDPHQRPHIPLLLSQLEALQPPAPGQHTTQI

STK17B (human) = STK17B (human) (UniProt O94768)
STK32C (human) = STK32C (human) (UniProt Q86UX6)
STK38L (human) = STK38L (human) (UniProt Q9Y2H1)
Chain of STK38L (human) (Q9Y2H1 whole entry, looked up): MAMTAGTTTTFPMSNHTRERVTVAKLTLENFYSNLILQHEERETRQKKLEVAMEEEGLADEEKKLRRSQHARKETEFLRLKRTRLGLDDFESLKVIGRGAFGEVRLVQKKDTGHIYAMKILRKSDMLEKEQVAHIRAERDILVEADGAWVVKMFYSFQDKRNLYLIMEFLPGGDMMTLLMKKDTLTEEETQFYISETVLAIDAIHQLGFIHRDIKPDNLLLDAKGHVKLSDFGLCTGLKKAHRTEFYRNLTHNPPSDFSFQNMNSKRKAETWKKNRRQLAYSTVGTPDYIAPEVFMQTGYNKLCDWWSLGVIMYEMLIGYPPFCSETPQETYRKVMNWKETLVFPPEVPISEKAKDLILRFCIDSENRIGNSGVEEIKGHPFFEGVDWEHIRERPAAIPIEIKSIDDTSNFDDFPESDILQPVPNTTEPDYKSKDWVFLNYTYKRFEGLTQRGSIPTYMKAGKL

TLK1 (human) = TLK1 (human) (UniProt Q9UKI8)
TNK2 (human) = TNK2 (human) (UniProt Q07912)
YES1 (human) = YES1 (human) (UniProt P07947)
Chain of YES1 (human) (P07947 whole entry, looked up): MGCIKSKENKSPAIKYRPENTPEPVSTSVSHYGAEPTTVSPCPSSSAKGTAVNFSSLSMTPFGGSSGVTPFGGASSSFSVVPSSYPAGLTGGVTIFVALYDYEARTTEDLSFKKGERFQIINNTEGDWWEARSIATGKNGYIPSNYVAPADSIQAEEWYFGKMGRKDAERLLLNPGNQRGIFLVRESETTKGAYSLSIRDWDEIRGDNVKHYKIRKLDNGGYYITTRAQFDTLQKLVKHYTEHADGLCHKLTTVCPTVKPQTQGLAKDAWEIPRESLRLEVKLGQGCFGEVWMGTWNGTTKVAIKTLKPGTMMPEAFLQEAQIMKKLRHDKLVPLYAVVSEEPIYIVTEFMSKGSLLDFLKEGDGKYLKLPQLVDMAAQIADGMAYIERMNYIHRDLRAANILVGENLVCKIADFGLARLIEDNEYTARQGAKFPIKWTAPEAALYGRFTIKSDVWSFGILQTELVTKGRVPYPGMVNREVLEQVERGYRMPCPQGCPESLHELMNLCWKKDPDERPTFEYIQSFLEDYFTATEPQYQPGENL

YSK4 (human) = YSK4 (human) (UniProt Q56UN5)

Chain of CSNK1A1L (human) (Q8N752 whole entry, looked up): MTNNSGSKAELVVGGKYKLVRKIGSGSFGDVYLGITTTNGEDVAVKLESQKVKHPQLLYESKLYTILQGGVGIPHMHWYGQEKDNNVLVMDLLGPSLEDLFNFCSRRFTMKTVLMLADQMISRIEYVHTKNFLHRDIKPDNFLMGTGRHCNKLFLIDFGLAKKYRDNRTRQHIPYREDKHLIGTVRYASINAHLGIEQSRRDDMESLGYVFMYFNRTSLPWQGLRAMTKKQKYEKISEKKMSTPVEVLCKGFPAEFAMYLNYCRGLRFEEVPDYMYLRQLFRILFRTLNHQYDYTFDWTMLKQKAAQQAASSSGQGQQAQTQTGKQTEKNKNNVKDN

Row | SMILES | kinase still bound, per cent of control (ACVR1B (human)) [%] | kinase still bound, per cent of control (ADCK4 (human)) [%] | kinase still bound, per cent of control (CAMK1D (human)) [%] | kinase still bound, per cent of control (CDK15 (human)) [%] | kinase still bound, per cent of control (CDK7 (human)) [%] | kinase still bound, per cent of control (CHUK (human)) [%] | kinase still bound, per cent of control (CSNK1A1L (human)) [%] | kinase still bound, per cent of control (CSNK2A1 (human)) [%] | kinase still bound, per cent of control (EPHA5 (human)) [%] | kinase still bound, per cent of control (EPHB6 (human)) [%] | kinase still bound, per cent of control (FGFR1 (human)) [%] | kinase still bound, per cent of control (FLT1 (human)) [%] | kinase still bound, per cent of control (GAK (human)) [%] | kinase still bound, per cent of control (HCK (human)) [%] | kinase still bound, per cent of control [1] [%] | kinase still bound, per cent of control (LRRK2 (human)) [%] | kinase still bound, per cent of control (MAP3K4 (human)) [%] | kinase still bound, per cent of control (MKNK2 (human)) [%] | kinase still bound, per cent of control (MST1R (human)) [%] | kinase still bound, per cent of control (NEK11 (human)) [%] | other results
1 | O=C(Nc1cccc(Nc2ncc(Br)c(NCCc3cnc[nH]3)n2)c1)N1CCCC1 | 61 | 33 | 4.6 | 25 | 0.55 | 4.1 | 32 | 0.3 | 92 | 0.2 | 0.25 | 0.6 | 1.4 | 42 | 0.2 | 11 | 47 | 0.1 | 70 | 85 | kinase still bound, per cent of control (NEK5 (human)): 0.5%; kinase still bound, per cent of control (NEK7 (human)): 0.5%; kinase still bound, per cent of control (NEK9 (human)): 4.6%; kinase still bound, per cent of control (NTRK1 (human)): 0.2%; kinase still bound, per cent of control (PAK4 (human)): 4%; kinase still bound, per cent of control (PDPK1 (human)): 2.4%; kinase still bound, per cent of control (PKN1 (human)): 0.3%; kinase still bound, per cent of control (PKN3 (M.tuberculosis)): 6.6%; kinase still bound, per cent of control (RIPK1 (human)): 18%; kinase still bound, per cent of control (RIPK2 (human)): 58%; kinase still bound, per cent of control (ROS1 (human)): 97%; kinase still bound, per cent of control (SRPK3 (human)): 6.2%; kinase still bound, per cent of control (STK16 (human)): 0.55%; kinase still bound, per cent of control (STK17B (human)): 2.4%; kinase still bound, per cent of control (STK32C (human)): 100%; kinase still bound, per cent of control (STK38L (human)): 69%; kinase still bound, per cent of control (TLK1 (human)): 37%; kinase still bound, per cent of control (TNK2 (human)): 18%; kinase still bound, per cent of control (YES1 (human)): 31%; kinase still bound, per cent of control (YSK4 (human)): 0%
2 | O=c1cc(N2CCOCC2)oc2c(-c3cccc4c3sc3ccccc34)cccc12 | 91 | 73 | 68 | 85 | 100 | 100 | 92 | 74 | 100 | 100 | 93 | 97 | 89 | 100 | 72 | 100 | 100 | 87 | 97 | 100 | kinase still bound, per cent of control (NEK5 (human)): 100%; kinase still bound, per cent of control (NEK7 (human)): 100%; kinase still bound, per cent of control (NEK9 (human)): 93%; kinase still bound, per cent of control (NTRK1 (human)): 81%; kinase still bound, per cent of control (PAK4 (human)): 80%; kinase still bound, per cent of control (PDPK1 (human)): 95%; kinase still bound, per cent of control (PKN1 (human)): 100%; kinase still bound, per cent of control (PKN3 (M.tuberculosis)): 6.6%; kinase still bound, per cent of control (RIPK1 (human)): 100%; kinase still bound, per cent of control (RIPK2 (human)): 91%; kinase still bound, per cent of control (ROS1 (human)): 90%; kinase still bound, per cent of control (SRPK3 (human)): 100%; kinase still bound, per cent of control (STK16 (human)): 98%; kinase still bound, per cent of control (STK17B (human)): 100%; kinase still bound, per cent of control (STK32C (human)): 54%; kinase still bound, per cent of control (STK38L (human)): 95%; kinase still bound, per cent of control (TLK1 (human)): 71%; kinase still bound, per cent of control (TNK2 (human)): 97%; kinase still bound, per cent of control (YES1 (human)): 94%; kinase still bound, per cent of control (YSK4 (human)): 100%
3 | CN(C)C/C=C/C(=O)Nc1ccc(C(=O)Nc2cccc(Nc3nccc(-c4cccnc4)n3)c2)cc1 | 86 | 98 | 100 | 100 | 3.2 | 54 | 100 | 12 | 97 | 3.9 | 89 | 46 | 3.6 | 100 | 0.6 | 100 | 71 | 7.3 | 100 | 100 | kinase still bound, per cent of control (NEK5 (human)): 2.2%; kinase still bound, per cent of control (NEK7 (human)): 9.8%; kinase still bound, per cent of control (NEK9 (human)): 22%; kinase still bound, per cent of control (NTRK1 (human)): 60%; kinase still bound, per cent of control (PAK4 (human)): 83%; kinase still bound, per cent of control (PDPK1 (human)): 100%; kinase still bound, per cent of control (PKN1 (human)): 95%; kinase still bound, per cent of control (PKN3 (M.tuberculosis)): 84%; kinase still bound, per cent of control (RIPK1 (human)): 34%; kinase still bound, per cent of control (RIPK2 (human)): 84%; kinase still bound, per cent of control (ROS1 (human)): 76%; kinase still bound, per cent of control (SRPK3 (human)): 28%; kinase still bound, per cent of control (STK16 (human)): 1.2%; kinase still bound, per cent of control (STK17B (human)): 19%; kinase still bound, per cent of control (STK32C (human)): 100%; kinase still bound, per cent of control (STK38L (human)): 100%; kinase still bound, per cent of control (TLK1 (human)): 92%; kinase still bound, per cent of control (TNK2 (human)): 100%; kinase still bound, per cent of control (YES1 (human)): 100%; kinase still bound, per cent of control (YSK4 (human)): 0.1%

— the kinase profiling compilation of Christmann-Franck et al. (2016)
